Experimental data taken from article PMC12477080, “Polychlorinated biphenyls (PCBs) interact with drug metabolism in vivo” (Archives of Toxicology, 2025).

Assays:
[1] = Determination of PCB concentrations in plasma of HELPcB and control participants; format: in vivo; conditions: human plasma, N 10; for PCB plasma concentration, Geometric mean, HELPcB: HELPcB group; for PCB plasma concentration, Geometric mean, Control: control group
Procedure: The laboratory regularly participates in round robins for the determination of PCBs in plasma (www.g-equas.de).
Plasma concentrations of PCB congeners were quantified in blood samples from all participants using gas chromatography/mass spectrometry (GC–MS) (Fig. 2A and Supplementary Table 2). A total of 19 PCB congeners were measured in control (n = 10) and HELPcB (n = 10) participants, with PCBs detected in all individuals. […] In the control group, PCB plasma concentrations primarily reflected background environmental exposure, such as dietary intake, representing the general population’s burden.

[2] = Stability of substrates and metabolites in quality control samples (benchtop, autosampler, freeze-thaw); format: physicochemical; conditions: for Autosampler stability (24 h) Av. Accuracy (%): 10° C for 24 hours in the autosampler; for 3x freeze-thaw Av. Accuracy (%): after three freeze-thaw cycles; for Benchtop stability (19 h) Ac. Accuracy (%): room temperature for 19 hours
Description: The method was validated for intra- and interday accuracy and precision, stability, and matrix effects. […] Validation details are provided in Supplementary Tables 5–7 and supplemental Fig. 3. Glucuronidase/sulfatase digests were used to isolate CYP-specific metabolic activities, reducing interference from polymorphic UDP-glucuronosyltransferase (UGT) and sulfotransferase isoforms.
Supplemental table 6: Stability of the substrates and metabolites. Quality control samples were left at room temperature for 19 hours (benchtop stability) and at 10° C for 24 hours in the autosampler (autosampler stability) or were measured after three freeze-thaw cycles. Stability samples were measured against a freshly prepared set of calibrators and quality control samples.

| SMILES | PCB plasma concentration, Geometric mean, HELPcB [1] | PCB plasma concentration, Geometric mean, Control [1] | other results |
| --- | --- | --- | --- |
| Clc1cc(-c2cc(Cl)c(Cl)c(Cl)c2)cc(Cl)c1Cl [PCB 169] | BLQ | BLQ | – |
| Clc1ccc(-c2cc(Cl)c(Cl)c(Cl)c2)cc1 [PCB 81] | BLQ | BLQ | – |
| Clc1ccc(-c2cc(Cl)c(Cl)c(Cl)c2)c(Cl)c1 [PCB 123] | BLQ | BLQ | – |
| Clc1ccc(-c2ccc(Cl)cc2Cl)cc1 [PCB 28] | 0.014 ng/mL | 0.006 ng/mL | – |
| Clc1cc(Cl)c(-c2cc(Cl)c(Cl)c(Cl)c2)cc1Cl [PCB 167] | 0.027 ng/mL | 0.008 ng/mL | – |
| Clc1ccc(-c2ccc(Cl)c(Cl)c2Cl)cc1Cl [PCB 105] | 0.014 ng/mL | BLQ | – |
| Clc1ccc(-c2cc(Cl)c(Cl)c(Cl)c2)cc1Cl [PCB 126] | BLQ | BLQ | – |
| Clc1ccc(-c2ccc(Cl)c(Cl)c2)cc1Cl [PCB 77] | BLQ | BLQ | – |
| Clc1cc(-c2cc(Cl)c(Cl)c(Cl)c2Cl)cc(Cl)c1Cl [PCB 189] | 0.014 ng/mL | 0.007 ng/mL | – |
| Clc1cc(-c2ccc(Cl)c(Cl)c2Cl)cc(Cl)c1Cl [PCB 157] | 0.016 ng/mL | 0.005 ng/mL | – |
| Clc1ccc(-c2cc(Cl)c(Cl)c(Cl)c2Cl)cc1Cl [PCB 156] | 0.097 ng/mL | 0.036 ng/mL | – |
| Clc1ccc(Cl)c(-c2cc(Cl)ccc2Cl)c1 [PCB 52] | BLQ | BLQ | – |
| Clc1cc(Cl)c(-c2cc(Cl)c(Cl)cc2Cl)cc1Cl [PCB 153] | 0.919 ng/mL | 0.297 ng/mL | – |
| Clc1ccc(Cl)c(-c2cc(Cl)c(Cl)cc2Cl)c1 [PCB 101] | 0.005 ng/mL | BLQ | – |
| Clc1ccc(-c2cc(Cl)c(Cl)c(Cl)c2Cl)cc1 [PCB 114] | 0.008 ng/mL | BLQ | – |
| COc1ccc2nc([S+]([O-])Cc3ncc(CO)c(OC)c3C)[nH]c2c1 (stereo not drawn) [5-OH-omeprazole] | – | – | Autosampler stability (24 h) Av. Accuracy (%) ([2]; QC conc. 0,5 ng/ml): 112,52%; 3x freeze-thaw Av. Accuracy (%) ([2]; QC conc. 0,5 ng/ml): 105,73%; Benchtop stability (19 h) Ac. Accuracy (%) ([2]; QC conc. 0,5 ng/ml): 95,94%; Autosampler stability (24 h) Av. Accuracy (%) ([2]; QC conc. 0,25 ng/ml): 90,94%; 3x freeze-thaw Av. Accuracy (%) ([2]; QC conc. 0,25 ng/ml): 101,98%; Benchtop stability (19 h) Ac. Accuracy (%) ([2]; QC conc. 0,25 ng/ml): 99,1%; Autosampler stability (24 h) Av. Accuracy (%) ([2]; QC conc. 60 ng/ml): 104,61%; 3x freeze-thaw Av. Accuracy (%) ([2]; QC conc. 60 ng/ml): 99,23%; Benchtop stability (19 h) Ac. Accuracy (%) ([2]; QC conc. 60 ng/ml): 99,68%; Autosampler stability (24 h) Av. Accuracy (%) ([2]; QC conc. 150 ng/ml): 97,73%; 3x freeze-thaw Av. Accuracy (%) ([2]; QC conc. 150 ng/ml): 100,57%; Benchtop stability (19 h) Ac. Accuracy (%) ([2]; QC conc. 150 ng/ml): 92,79%; Autosampler stability (24 h) Av. Accuracy (%) ([2]; QC conc. 1,5 ng/ml): 102,58%; 3x freeze-thaw Av. Accuracy (%) ([2]; QC conc. 1,5 ng/ml): 103,03%; Benchtop stability (19 h) Ac. Accuracy (%) ([2]; QC conc. 1,5 ng/ml): 98,98% |
| O=C1Nc2c(O)cc(Cl)cc2[C@@](C#CC2CC2)(C(F)(F)F)O1 [8-OH-efavirenz] | – | – | Autosampler stability (24 h) Av. Accuracy (%) ([2]; QC conc. 0,5 ng/ml): 86,73%; 3x freeze-thaw Av. Accuracy (%) ([2]; QC conc. 0,5 ng/ml): 84,9%; Benchtop stability (19 h) Ac. Accuracy (%) ([2]; QC conc. 0,5 ng/ml): 74,06%; Autosampler stability (24 h) Av. Accuracy (%) ([2]; QC conc. 0,25 ng/ml): 86,81%; 3x freeze-thaw Av. Accuracy (%) ([2]; QC conc. 0,25 ng/ml): 84,61%; Benchtop stability (19 h) Ac. Accuracy (%) ([2]; QC conc. 0,25 ng/ml): 69,5%; Autosampler stability (24 h) Av. Accuracy (%) ([2]; QC conc. 60 ng/ml): 86,15%; 3x freeze-thaw Av. Accuracy (%) ([2]; QC conc. 60 ng/ml): 79,98%; Benchtop stability (19 h) Ac. Accuracy (%) ([2]; QC conc. 60 ng/ml): 77,52%; Autosampler stability (24 h) Av. Accuracy (%) ([2]; QC conc. 150 ng/ml): 78,85%; 3x freeze-thaw Av. Accuracy (%) ([2]; QC conc. 150 ng/ml): 77,49%; Benchtop stability (19 h) Ac. Accuracy (%) ([2]; QC conc. 150 ng/ml): 74,14%; Autosampler stability (24 h) Av. Accuracy (%) ([2]; QC conc. 1,5 ng/ml): 88,49%; 3x freeze-thaw Av. Accuracy (%) ([2]; QC conc. 1,5 ng/ml): 79,73%; Benchtop stability (19 h) Ac. Accuracy (%) ([2]; QC conc. 1,5 ng/ml): 76,61% |
